Data published in patent US9546167B2, “Radiosynthesis of tau radiopharmaceuticals” (The General Hospital Corporation, priority 2013, dated 2017).
One block for each compound: values may come before it.

Columns and labels:
[1] = solubility of precursor in reaction / organic solvents; assay type: physicochemical
Protocol: The uncorrected radiochemical yield (RCY) of [^18F]T807 was 14±3% (n=3) and the total synthesis time was 60 minutes, including formulation. The product was prepared consistently with >95% radiochemical purity and the specific activity at the end of synthesis was 216±60 GBq/μmol (5837±1621 mCi/μmol). […] Therefore, the precursor could be added remotely to the reaction vial with minimal volume and eliminated the possibility of the precursor precipitating out of solution before use. Moreover, the fluorination condition simultaneously removed the t-BOC protecting group so there was no need for an additional deprotection step. Secondly, without being bound by any theory, it is thought that the protecting group may also be responsible for the higher radiochemical yields by inhibiting side reactions with the —NH of the indole moiety.

[2] = lipophilicity of precursor (HPLC analysis remark); assay type: physicochemical; conditions: qualitative
Protocol: (§1) Three consecutive productions of [^18F]T807 were carried out to validate this radiopharmaceutical for human use. […] Due to the increased lipophilicity of 1b, an additional HPLC analysis was performed using an X-Select HSS T3 column (4.6×150 mm, 3.5 μm) and eluted with 50% CH3OH/H2O (pH 2 adjusted with HCl) with a flow rate of 1.2 mL/min, monitored at λ=254 nm. Radio-TLC was performed to verify the radiochemical purity of [^18F]T807 using silica gel plates and 80:20 (v/v) CH2Cl2:CH3OH mobile phase. Radio-TLC confirmed high radiochemical purity (>97%). […] The half-life was verified to be 109.7 minutes, as determined by a dose calibrator, and no long lived isotopes were observed (5 days), as determined by analysis on a HPGE detector after ^18F-decay. Formulated [^18F]T807 was free of pyrogens (Charles River Endosafe® PTS), sterile, and passed the Kryptofix® spot test (<50 μg/mL). […] Using this new methodology, [^18F]T807 was successfully validated for human PET studies, meeting all FDA and USP requirements for a PET radiopharmaceutical.

[3] = system: hyperphosphorylated tau fibrillar aggregates; conditions: PET imaging, human subjects; cited from earlier work
[4] = stability of formulated product by HPLC and radio-TLC, clarity and pH; assay type: physicochemical; conditions: over a period of 6 hours
Protocol: as §1

[5] = system: paired helical filaments of tau (PHF-tau); conditions: cited from earlier work

SMILES: CC(=C(C#N)C#N)c1ccc2cc(N(C)CCF)ccc2c1 [[^18F]FDDNP]
distinction between amyloid-β plaques and tau [3]: does not distinguish | imaging of hyperphosphorylated tau fibrillar aggregates [3]: effective

SMILES: [18F]c1ccc(-c2ccc3c(c2)[nH]c2ccncc23)cn1 [[^18F]T807]
pH [4]: 5.5 | stability as measured by HPLC and radio-TLC [4]: maintained stability | potency in vitro for paired helical filaments of tau (PHF-tau) [5]: excellent | selectivity in vitro for PHF-tau over Aβ-plaques [5]: excellent

SMILES: [18F]CCC1CCN(c2ccn3c(n2)nc2ccccc23)CC1 [[^18F]T808, reference compound]
potency in vitro for paired helical filaments of tau (PHF-tau) [5]: excellent | selectivity in vitro for PHF-tau over Aβ-plaques [5]: excellent

Next, values leading:

solubility in most organic solvents [1]: only sparingly soluble
SMILES: O=[N+]([O-])c1ccc(-c2ccc3c(c2)[nH]c2ccncc23)cn1 [Compound 1a, 7-(6-nitropyridin-3-yl)-5H-pyrido[4,3-b]indole, reference compound]

lipophilicity [2]: increased | solubility in the reaction solvent (DMSO) ([1]; compared with 1a): increased
SMILES: CC(C)(C)OC(=O)n1c2ccncc2c2ccc(-c3ccc([N+](=O)[O-])nc3)cc21 [Compound 1b, tert-butyl 7-(6-nitropyridin-3-yl)-5H-pyrido[4,3-b]indole-5-carboxylate]
